Laboratory results reported in ChEMBL document CHEMBL4371056, “The development and characterization of a chemical probe targeting PRMT1 over PRMT5” (Bioorg Med Chem, 2019).
The source made the active and inactive calls. The calls are words filed in the database; no cut-off is given here. Starred links: 1 amine or outer side, 2 acyl side, 3 side chain; linkers in the order of their positions; H or OH if unused. Non-standard residues stand in square brackets, D forms with d. Residues, ends and D or L forms follow the SMILES beside them. *: point of attachment. X1 = N=C(CCl)NCCCC(N[*:1])C(=O)[*:2]; Butanoyl(4-ethynyl) = C#CCCCC(=O)*

Legend:
[1] = molecular target: T1, Protein arginine N-methyltransferase 1 (Homo sapiens, UniProt Q99873); test: Binding affinity to recombinant full-length N-terminal His6-tagged PRMT1 (unknown origin) assessed as time needed for maximum biotin labelling of PRMT1 at 10 uM using biotin azide and in presence of SAM incubated for 30 mins by Western blot analysis
Target sequence in this assay (Q99873 whole entry, looked up): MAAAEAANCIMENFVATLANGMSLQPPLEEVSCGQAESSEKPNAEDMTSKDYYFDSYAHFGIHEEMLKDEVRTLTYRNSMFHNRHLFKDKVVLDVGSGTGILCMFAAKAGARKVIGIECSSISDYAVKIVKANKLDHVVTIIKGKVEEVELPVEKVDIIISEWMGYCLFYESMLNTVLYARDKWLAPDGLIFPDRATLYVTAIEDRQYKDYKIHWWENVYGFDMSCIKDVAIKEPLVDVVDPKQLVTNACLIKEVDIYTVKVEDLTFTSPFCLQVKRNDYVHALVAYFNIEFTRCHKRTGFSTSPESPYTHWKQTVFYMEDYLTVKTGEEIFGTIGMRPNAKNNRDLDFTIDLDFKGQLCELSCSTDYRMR

[2] = molecular target: T1, Protein arginine N-methyltransferase 1; test: (§1) Binding affinity to recombinant full-length N-terminal His6-tagged PRMT1 (unknown origin) assessed as biotin labelling of PRMT1 at 1 uM using biotin azide and in presence of SAM incubated for 30 mins by Western blot analysis
Target sequence in this assay (Q99873 whole entry, looked up): as above

[3] = molecular target: T2, Protein arginine N-methyltransferase 5 (Homo sapiens, UniProt O14744); test: Inhibition of recombinant full-length N-terminal His6-tagged PRMT5 (unknown origin) using AcH4-21 peptide substrate preincubated for 10 mins followed by substrate/14C-methyl-SAM addition and measured after 15 mins by phosphorimaging analysis based radioisotopic assay
T2 sequence (O14744 whole entry): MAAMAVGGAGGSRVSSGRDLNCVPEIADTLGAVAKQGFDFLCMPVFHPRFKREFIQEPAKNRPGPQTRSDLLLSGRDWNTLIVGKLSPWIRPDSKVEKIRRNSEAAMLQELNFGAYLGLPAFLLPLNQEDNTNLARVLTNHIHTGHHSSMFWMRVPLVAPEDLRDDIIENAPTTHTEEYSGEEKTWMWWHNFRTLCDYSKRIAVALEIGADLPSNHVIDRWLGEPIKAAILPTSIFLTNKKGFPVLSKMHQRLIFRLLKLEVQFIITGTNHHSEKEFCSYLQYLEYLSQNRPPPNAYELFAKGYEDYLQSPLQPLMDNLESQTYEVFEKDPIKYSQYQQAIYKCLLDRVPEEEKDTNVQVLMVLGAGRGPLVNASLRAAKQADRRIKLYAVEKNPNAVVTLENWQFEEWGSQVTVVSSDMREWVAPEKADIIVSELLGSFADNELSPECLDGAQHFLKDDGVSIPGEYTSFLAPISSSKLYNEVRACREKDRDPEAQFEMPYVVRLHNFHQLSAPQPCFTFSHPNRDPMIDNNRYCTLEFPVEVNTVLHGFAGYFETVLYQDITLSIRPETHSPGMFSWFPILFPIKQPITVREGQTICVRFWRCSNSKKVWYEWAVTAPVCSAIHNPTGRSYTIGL

Homo sapiens [4] = species on record: Homo sapiens; test: Binding affinity to PRMT1 C101A mutant (unknown origin) assessed as biotin labelling of PRMT1 at >25 uM using biotin azide and in presence of SAM incubated for 30 mins by Western blot analysis
Homo sapiens [5] = species on record: Homo sapiens; test: Binding affinity to PRMT1 C101A mutant (unknown origin) assessed as optimum drug level for biotin labelling of PRMT1 using biotin azide and in presence of SAM incubated for 30 mins by Western blot analysis
[6] = molecular target: T1, Protein arginine N-methyltransferase 1; test: Binding affinity to recombinant full-length N-terminal His6-tagged PRMT1 (unknown origin) assessed as biotin labelling of PRMT1 at 1 uM using biotin azide and in absence of SAM incubated for 30 mins by Western blot analysis
Target sequence in this assay (Q99873 whole entry, looked up): as the sequence (Q99873 whole entry, looked up) above

[7] = molecular target: T1, Protein arginine N-methyltransferase 1; test: as §1, with “at 10” for “at 1”, “uM in presence of recombinant full-length N-terminal His6-tagged PRMT5 (unknown origin)” for “uM”, “mins at 25 degC” for “mins”
Target sequence in this assay (Q99873 whole entry, looked up): as above

[8] = molecular target: T1, Protein arginine N-methyltransferase 1; test: as §1, with “at 10” for “at 1”, “uM in presence of recombinant full-length N-terminal His6-tagged PRMT5 (unknown origin)” for “uM”, “mins at 37 degC” for “mins”
Target sequence in this assay (Q99873 whole entry, looked up): as above

[9] = molecular target: T1, Protein arginine N-methyltransferase 1; test: Binding affinity to recombinant full-length N-terminal His6-tagged PRMT1 (unknown origin) assessed as biotin labelling of PRMT1 at >25 uM using biotin azide incubated for 30 mins by Western blot analysis
Target sequence in this assay (Q99873 whole entry, looked up): as above

[10] = molecular target: T2, Protein arginine N-methyltransferase 5; test: Binding affinity to recombinant full-length N-terminal His6-tagged PRMT5 (unknown origin) assessed as biotin labelling of PRMT5 at 50 uM using biotin azide incubated for 30 mins by Western blot analysis
[11] = molecular target: T1, Protein arginine N-methyltransferase 1; test: Binding affinity to recombinant full-length N-terminal His6-tagged PRMT1 (unknown origin) assessed as lowest drug level for biotin labelling of PRMT1 using biotin azide and in presence of SAM incubated for 30 mins by Western blot analysis
Homo sapiens [12] = species on record: Homo sapiens; test: Selectivity index, ratio of binding affinity to recombinant full-length N-terminal His6-tagged PRMT5 (unknown origin) assessed as biotin labelling of PRMT5 at 25 uM to binding affinity to recombinant full-length N-terminal His6-tagged PRMT1 (unknown origin) assessed as biotin labelling of PRMT1 at 25 uM
Homo sapiens [13] = species on record: Homo sapiens; test: Binding affinity to PRMT1 C101A mutant (unknown origin) assessed as biotin labelling of PRMT1 at <25 uM using biotin azide and in presence of SAM incubated for 30 mins by Western blot analysis
[14] = molecular target: T1, Protein arginine N-methyltransferase 1; test: Inhibition of recombinant full-length N-terminal His6-tagged PRMT1 (unknown origin) using AcH4-21 peptide substrate preincubated for 10 mins followed by substrate/14C-methyl-SAM addition and measured after 15 mins by phosphorimaging analysis based radioisotopic assay
Target sequence in this assay (Q99873 whole entry): as the sequence (Q99873 whole entry, looked up) above

TIME [1]: 0.5 h
Activity [2]: Active
IC50 [3]: > 500 µM
Activity (Homo sapiens [4]): Active
Activity (Homo sapiens [5]): 10 µM
Activity [6]: Active
Activity [7]: Active
Activity [8]: Active
Activity [9]: Active
Activity [10]: inactive
Activity [11]: 0.25 µM
Ratio (Homo sapiens [12]): 8
Activity (Homo sapiens [13]): inactive
IC50 [14]: 20 µM
Compound: C#CCCCC(=O)N[C@@H](Cc1cnc[nH]1)C(=O)N[C@@H](CCCCN)C(=O)N[C@@H](Cc1cnc[nH]1)C(=O)N[C@@H](C)C(=O)NC(CCCNC(=N)CCl)C(=O)NCC(=O)NCC(=O)N[C@@H](CCCCN)C(=O)NCC(=O)N[C@@H](CC(C)C)C(=O)NCC(=O)N[C@@H](CCCCN)C(=O)NCC(=O)NCC(=O)N[C@@H](C)C(=O)N[C@@H](CCCCN)C(=O)O (some centres undefined) ({Butanoyl(4-ethynyl)}-HKHA[X1]GGKGLGKGGAK-OH)
